Measurements as given in the kinase profiling compilation of Christmann-Franck et al. (2016).

Tests used:
Assay in all cases: KINOMEscan competition binding
Details in all cases: compound 10.0 µM
[1] = molecular target: HIPK3 (human) (UniProt Q9H422)
[2] = molecular target: ULK2 (human) (UniProt Q8IYT8)
[3] = test system: KIT (human), P10721 [A829P]
[4] = molecular target: CDK19 (human) (UniProt Q9BWU1)
[5] = molecular target: PDGFRB (human) (UniProt P09619)
[6] = molecular target: MYLK2 (human) (UniProt Q9H1R3)
[7] = molecular target: MAP4K3 (human) (UniProt Q8IVH8)
[8] = molecular target: AURKA (human) (UniProt O14965)
[9] = molecular target: FYN (human) (UniProt P06241)
[10] = molecular target: GSK3A (human) (UniProt P49840)
[11] = molecular target: PLK3 (human) (UniProt Q9H4B4)
[12] = molecular target: MARK3 (human) (UniProt P27448)
[13] = molecular target: ERBB4 (human) (UniProt Q15303)
[14] = molecular target: DYRK1A (human) (UniProt Q13627)
[15] = molecular target: CDC2L2 (human) (UniProt Q9UQ88)
[16] = molecular target: ROCK2 (human) (UniProt O75116)
[17] = molecular target: MAPK9 (human) (UniProt P45984)
[18] = molecular target: PRKACA (human) (UniProt P17612)
[19] = molecular target: DSTYK (human) (UniProt Q6XUX3)
[20] = molecular target: ROS1 (human) (UniProt P08922)
[21] = molecular target: LIMK1 (human) (UniProt P53667)
[22] = molecular target: NIM1 (human) (UniProt Q8IY84)
[23] = molecular target: PI4KB (human) (UniProt Q9UBF8)
[24] = molecular target: RPS6KA1 KD2 (human) (UniProt Q15418)
[25] = molecular target: NEK1 (human) (UniProt Q96PY6)
[26] = molecular target: JAK1 JH2 pseudokinase (human) (UniProt P23458)
[27] = molecular target: RPS6KA2 KD1 (human) (UniProt Q15349)
[28] = molecular target: TAOK1 (human) (UniProt Q7L7X3)
[29] = molecular target: ULK1 (human) (UniProt O75385)
[30] = molecular target: PIP4K2B (human) (UniProt P78356)
[31] = molecular target: EPHA5 (human) (UniProt P54756)
[32] = molecular target: MLTK (human) (UniProt Q9NYL2)
[33] = molecular target: MAP3K2 (human) (UniProt Q9Y2U5)
[34] = molecular target: HUNK (human) (UniProt P57058)
[35] = molecular target: CSNK1G1 (human) (UniProt Q9HCP0)
[36] = molecular target: STK39 (human) (UniProt Q9UEW8)
[37] = molecular target: EGFR (human) (UniProt P00533)
[38] = molecular target: TGFBR1 (human) (UniProt P36897)
[39] = molecular target: BTK (human) (UniProt Q06187)
[40] = molecular target: PIP4K2C (human) (UniProt Q8TBX8)

GSK3A (human), sequence (P49840 whole entry, looked up): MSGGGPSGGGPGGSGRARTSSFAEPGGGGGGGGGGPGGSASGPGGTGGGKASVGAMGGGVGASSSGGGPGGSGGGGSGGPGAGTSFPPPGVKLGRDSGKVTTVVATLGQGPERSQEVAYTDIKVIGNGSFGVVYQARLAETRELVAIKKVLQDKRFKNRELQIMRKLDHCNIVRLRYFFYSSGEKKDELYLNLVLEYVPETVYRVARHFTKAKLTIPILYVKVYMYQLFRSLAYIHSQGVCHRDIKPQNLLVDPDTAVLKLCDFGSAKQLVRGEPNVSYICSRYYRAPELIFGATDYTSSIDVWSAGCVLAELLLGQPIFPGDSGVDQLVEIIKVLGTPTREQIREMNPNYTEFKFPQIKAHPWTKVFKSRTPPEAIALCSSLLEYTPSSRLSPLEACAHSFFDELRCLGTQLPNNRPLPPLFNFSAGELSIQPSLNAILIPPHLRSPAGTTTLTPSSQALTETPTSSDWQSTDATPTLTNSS
NEK1 (human), sequence (Q96PY6 whole entry, looked up): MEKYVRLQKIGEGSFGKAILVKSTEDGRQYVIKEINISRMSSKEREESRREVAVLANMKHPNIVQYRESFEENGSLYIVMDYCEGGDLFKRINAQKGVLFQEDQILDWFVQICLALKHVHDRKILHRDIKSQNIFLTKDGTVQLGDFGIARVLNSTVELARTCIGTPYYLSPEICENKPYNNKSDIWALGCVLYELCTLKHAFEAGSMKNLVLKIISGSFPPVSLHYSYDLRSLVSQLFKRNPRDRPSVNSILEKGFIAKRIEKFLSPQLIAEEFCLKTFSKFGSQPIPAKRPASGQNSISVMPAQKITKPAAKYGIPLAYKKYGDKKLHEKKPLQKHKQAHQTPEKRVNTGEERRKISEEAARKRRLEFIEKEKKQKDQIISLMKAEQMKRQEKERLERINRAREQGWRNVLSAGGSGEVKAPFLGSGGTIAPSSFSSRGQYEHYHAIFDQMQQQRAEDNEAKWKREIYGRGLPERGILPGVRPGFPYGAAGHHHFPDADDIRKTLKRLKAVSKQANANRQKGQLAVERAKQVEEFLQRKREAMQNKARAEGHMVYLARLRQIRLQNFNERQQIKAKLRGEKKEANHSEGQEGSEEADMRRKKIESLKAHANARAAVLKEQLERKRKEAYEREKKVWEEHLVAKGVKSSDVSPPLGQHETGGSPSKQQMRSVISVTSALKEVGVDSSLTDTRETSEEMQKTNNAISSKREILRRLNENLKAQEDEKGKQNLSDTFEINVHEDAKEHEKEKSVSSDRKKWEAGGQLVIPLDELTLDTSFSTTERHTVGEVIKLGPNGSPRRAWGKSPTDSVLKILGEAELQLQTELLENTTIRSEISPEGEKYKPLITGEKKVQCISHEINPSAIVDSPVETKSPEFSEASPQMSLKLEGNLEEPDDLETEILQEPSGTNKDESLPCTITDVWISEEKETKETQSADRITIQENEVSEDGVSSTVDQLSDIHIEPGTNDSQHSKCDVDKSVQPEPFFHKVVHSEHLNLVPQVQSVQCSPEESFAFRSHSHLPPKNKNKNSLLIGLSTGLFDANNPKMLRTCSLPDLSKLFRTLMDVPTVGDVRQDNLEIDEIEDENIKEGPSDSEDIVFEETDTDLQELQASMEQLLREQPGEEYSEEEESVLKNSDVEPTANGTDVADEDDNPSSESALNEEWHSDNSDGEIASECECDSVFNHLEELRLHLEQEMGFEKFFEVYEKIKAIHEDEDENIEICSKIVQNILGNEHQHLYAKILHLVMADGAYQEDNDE
ROS1 (human), sequence (P08922 whole entry, looked up): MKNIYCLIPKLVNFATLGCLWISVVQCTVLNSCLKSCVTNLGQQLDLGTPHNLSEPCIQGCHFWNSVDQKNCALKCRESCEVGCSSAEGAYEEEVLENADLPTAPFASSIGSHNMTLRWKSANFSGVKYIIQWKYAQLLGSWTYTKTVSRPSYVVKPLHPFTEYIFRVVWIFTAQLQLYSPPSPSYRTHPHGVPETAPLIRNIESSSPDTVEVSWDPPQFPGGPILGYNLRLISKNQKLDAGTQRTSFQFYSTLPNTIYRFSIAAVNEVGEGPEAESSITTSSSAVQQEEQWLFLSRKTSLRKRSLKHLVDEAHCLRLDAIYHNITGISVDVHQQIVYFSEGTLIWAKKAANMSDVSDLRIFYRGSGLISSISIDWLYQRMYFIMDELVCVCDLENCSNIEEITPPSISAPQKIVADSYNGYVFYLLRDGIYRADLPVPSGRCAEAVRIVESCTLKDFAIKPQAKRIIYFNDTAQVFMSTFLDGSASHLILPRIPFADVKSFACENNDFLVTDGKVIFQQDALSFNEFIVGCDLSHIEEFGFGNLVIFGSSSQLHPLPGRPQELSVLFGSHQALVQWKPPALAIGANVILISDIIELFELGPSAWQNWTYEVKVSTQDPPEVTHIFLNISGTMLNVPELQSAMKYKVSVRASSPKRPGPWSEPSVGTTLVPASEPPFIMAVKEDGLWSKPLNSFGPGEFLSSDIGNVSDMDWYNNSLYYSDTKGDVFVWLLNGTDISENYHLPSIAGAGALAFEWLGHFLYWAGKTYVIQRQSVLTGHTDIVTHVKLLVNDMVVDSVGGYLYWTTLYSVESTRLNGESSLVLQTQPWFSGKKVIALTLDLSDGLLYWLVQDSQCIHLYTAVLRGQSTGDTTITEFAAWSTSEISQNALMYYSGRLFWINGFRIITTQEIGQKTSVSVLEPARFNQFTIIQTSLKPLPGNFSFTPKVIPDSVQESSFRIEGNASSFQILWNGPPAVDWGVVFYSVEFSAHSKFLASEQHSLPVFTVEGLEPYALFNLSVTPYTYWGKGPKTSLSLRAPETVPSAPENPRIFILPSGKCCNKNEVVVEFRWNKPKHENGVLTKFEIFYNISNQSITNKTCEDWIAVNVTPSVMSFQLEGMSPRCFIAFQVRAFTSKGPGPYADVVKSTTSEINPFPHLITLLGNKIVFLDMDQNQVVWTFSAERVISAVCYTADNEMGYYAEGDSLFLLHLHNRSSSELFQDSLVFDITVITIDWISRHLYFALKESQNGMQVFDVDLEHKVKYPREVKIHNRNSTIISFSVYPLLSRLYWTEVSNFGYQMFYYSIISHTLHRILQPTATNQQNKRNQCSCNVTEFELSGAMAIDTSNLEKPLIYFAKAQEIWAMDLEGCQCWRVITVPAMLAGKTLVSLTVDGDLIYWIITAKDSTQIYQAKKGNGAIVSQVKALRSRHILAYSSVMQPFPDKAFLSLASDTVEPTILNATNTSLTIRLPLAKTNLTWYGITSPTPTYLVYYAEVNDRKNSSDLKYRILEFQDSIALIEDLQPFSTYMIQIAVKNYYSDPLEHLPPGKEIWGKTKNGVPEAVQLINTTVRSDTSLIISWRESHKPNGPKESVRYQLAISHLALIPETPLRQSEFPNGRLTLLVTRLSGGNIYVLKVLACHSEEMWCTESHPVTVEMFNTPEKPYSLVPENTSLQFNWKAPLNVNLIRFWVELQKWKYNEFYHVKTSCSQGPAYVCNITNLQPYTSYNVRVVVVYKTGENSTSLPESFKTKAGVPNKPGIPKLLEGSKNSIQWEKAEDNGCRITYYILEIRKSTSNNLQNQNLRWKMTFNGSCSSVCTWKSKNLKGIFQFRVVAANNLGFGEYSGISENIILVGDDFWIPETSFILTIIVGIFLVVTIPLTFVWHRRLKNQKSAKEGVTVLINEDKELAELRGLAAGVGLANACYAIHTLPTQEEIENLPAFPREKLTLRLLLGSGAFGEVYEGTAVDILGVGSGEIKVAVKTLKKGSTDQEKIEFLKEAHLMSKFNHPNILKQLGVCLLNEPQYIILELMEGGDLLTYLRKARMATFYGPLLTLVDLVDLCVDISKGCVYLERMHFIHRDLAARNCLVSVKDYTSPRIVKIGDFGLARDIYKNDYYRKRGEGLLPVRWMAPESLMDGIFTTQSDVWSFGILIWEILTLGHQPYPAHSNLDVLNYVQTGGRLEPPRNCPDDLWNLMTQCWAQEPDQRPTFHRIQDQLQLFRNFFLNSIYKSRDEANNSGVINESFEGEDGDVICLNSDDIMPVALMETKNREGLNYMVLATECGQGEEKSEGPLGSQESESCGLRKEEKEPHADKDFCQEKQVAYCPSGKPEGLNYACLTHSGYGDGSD
TAOK1 (human), sequence (Q7L7X3 whole entry, looked up): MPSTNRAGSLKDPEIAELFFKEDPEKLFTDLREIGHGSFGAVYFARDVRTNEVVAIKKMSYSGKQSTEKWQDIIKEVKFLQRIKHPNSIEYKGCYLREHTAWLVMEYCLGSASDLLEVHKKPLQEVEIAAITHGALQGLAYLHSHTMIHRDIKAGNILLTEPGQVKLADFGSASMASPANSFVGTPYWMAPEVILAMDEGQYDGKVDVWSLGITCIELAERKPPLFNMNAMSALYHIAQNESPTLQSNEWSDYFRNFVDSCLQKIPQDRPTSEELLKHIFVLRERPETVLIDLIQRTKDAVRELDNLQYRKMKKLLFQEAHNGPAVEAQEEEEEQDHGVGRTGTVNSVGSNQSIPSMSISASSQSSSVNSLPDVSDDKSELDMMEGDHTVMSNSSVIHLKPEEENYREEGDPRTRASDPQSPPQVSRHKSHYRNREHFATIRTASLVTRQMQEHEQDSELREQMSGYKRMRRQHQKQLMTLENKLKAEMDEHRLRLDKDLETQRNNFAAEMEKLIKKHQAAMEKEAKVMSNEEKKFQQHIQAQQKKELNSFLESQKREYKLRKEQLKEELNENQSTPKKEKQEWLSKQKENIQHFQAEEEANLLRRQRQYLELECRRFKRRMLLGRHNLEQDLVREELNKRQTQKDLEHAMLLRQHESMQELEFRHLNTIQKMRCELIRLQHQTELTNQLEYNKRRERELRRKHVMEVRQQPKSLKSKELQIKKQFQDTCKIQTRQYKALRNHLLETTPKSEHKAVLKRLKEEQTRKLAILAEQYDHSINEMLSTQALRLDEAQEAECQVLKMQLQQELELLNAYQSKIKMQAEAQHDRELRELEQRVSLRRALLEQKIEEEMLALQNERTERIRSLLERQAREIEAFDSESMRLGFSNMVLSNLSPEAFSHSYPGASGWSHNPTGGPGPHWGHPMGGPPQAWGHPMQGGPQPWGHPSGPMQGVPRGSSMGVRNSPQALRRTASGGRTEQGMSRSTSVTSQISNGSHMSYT

| SMILES | kinase still bound, per cent of control [1] [%] | kinase still bound, per cent of control [2] [%] | kinase still bound, per cent of control [4] [%] | kinase still bound, per cent of control [5] [%] | kinase still bound, per cent of control [6] [%] | kinase still bound, per cent of control [7] [%] | kinase still bound, per cent of control [8] [%] | kinase still bound, per cent of control [10] [%] | kinase still bound, per cent of control [11] [%] | kinase still bound, per cent of control [12] [%] | kinase still bound, per cent of control [13] [%] | kinase still bound, per cent of control [14] [%] | kinase still bound, per cent of control [15] [%] | kinase still bound, per cent of control [16] [%] | kinase still bound, per cent of control [17] [%] | kinase still bound, per cent of control [18] [%] | kinase still bound, per cent of control [22] [%] | kinase still bound, per cent of control [24] [%] | kinase still bound, per cent of control [27] [%] | kinase still bound, per cent of control [28] [%] | other results |
| --- | --- | --- | --- | --- | --- | --- | --- | --- | --- | --- | --- | --- | --- | --- | --- | --- | --- | --- | --- | --- | --- |
| CCc1nc(-c2cccc(C)c2)c(-c2ccnc(NC(=O)c3ccccc3)c2)s1 | 100 | 100 | 91 | 34 | 96 | 80 | 90 | 100 | 98 | 72 | 2.8 | 69 | 90 | 100 | 0 | 85 | 100 | 28 | 100 | 72 | kinase still bound, per cent of control [3]: 100%; kinase still bound, per cent of control [9]: 45%; kinase still bound, per cent of control [19]: 100%; kinase still bound, per cent of control [20]: 69%; kinase still bound, per cent of control [21]: 90%; kinase still bound, per cent of control [23]: 100%; kinase still bound, per cent of control [25]: 90%; kinase still bound, per cent of control [26]: 70%; kinase still bound, per cent of control [29]: 69%; kinase still bound, per cent of control [30]: 93%; kinase still bound, per cent of control [31]: 90%; kinase still bound, per cent of control [32]: 9.4%; kinase still bound, per cent of control [33]: 100%; kinase still bound, per cent of control [34]: 15%; kinase still bound, per cent of control [35]: 28%; kinase still bound, per cent of control [36]: 100% |
| Cc1cn(-c2cc(C(=O)Nc3ccc(C)c(NC(=O)c4ccno4)c3)cc(C(F)(F)F)c2)cn1 | 100 | 100 | 100 | 0 | 100 | 100 | 100 | 100 | 100 | 100 | 100 | 100 | 100 | 100 | 100 | 100 | 100 | 100 | 100 | 100 | kinase still bound, per cent of control [37]: 100%; kinase still bound, per cent of control [9]: 9.6%; kinase still bound, per cent of control [38]: 100%; kinase still bound, per cent of control [20]: 100%; kinase still bound, per cent of control [21]: 100%; kinase still bound, per cent of control [23]: 100%; kinase still bound, per cent of control [25]: 100%; kinase still bound, per cent of control [26]: 100%; kinase still bound, per cent of control [29]: 100%; kinase still bound, per cent of control [30]: 100%; kinase still bound, per cent of control [31]: 17%; kinase still bound, per cent of control [32]: 7.8%; kinase still bound, per cent of control [33]: 100%; kinase still bound, per cent of control [34]: 100%; kinase still bound, per cent of control [35]: 100%; kinase still bound, per cent of control [39]: 100%; kinase still bound, per cent of control [36]: 100% |
| CCN(CCO)CCCOc1ccc2c(Nc3cc(CC(=O)Nc4cccc(F)c4)[nH]n3)ncnc2c1 | 29 | 100 | 100 | 0 | 87 | 51 | 6.5 | 100 | 89 | 88 | 4 | 100 | 5 | 66 | 46 | 100 | 97 | 69 | 80 | 59 | kinase still bound, per cent of control [3]: 50%; kinase still bound, per cent of control [38]: 98%; kinase still bound, per cent of control [40]: 51%; kinase still bound, per cent of control [19]: 14%; kinase still bound, per cent of control [20]: 100%; kinase still bound, per cent of control [21]: 100%; kinase still bound, per cent of control [23]: 100%; kinase still bound, per cent of control [26]: 100%; kinase still bound, per cent of control [29]: 76%; kinase still bound, per cent of control [30]: 100%; kinase still bound, per cent of control [32]: 63%; kinase still bound, per cent of control [33]: 87%; kinase still bound, per cent of control [34]: 94%; kinase still bound, per cent of control [39]: 7.2%; kinase still bound, per cent of control [36]: 100% |
| CC(=O)c1c(C)c2cnc(Nc3ccc(N4CCNCC4)cn3)nc2n(C2CCCC2)c1=O | 2.1 | 0 | 100 | 29 | 32 | 20 | 83 | 50 | 19 | 8 | 83 | 0.9 | 78 | 36 | 0.5 | 100 | 40 | 38 | 14 | 11 | kinase still bound, per cent of control [3]: 32%; kinase still bound, per cent of control [9]: 100%; kinase still bound, per cent of control [40]: 1%; kinase still bound, per cent of control [19]: 5%; kinase still bound, per cent of control [25]: 61%; kinase still bound, per cent of control [29]: 3.1%; kinase still bound, per cent of control [30]: 18%; kinase still bound, per cent of control [31]: 98%; kinase still bound, per cent of control [33]: 49%; kinase still bound, per cent of control [34]: 77%; kinase still bound, per cent of control [35]: 83%; kinase still bound, per cent of control [39]: 13%; kinase still bound, per cent of control [36]: 6.8% |
